Laboratory results as given in ChEMBL document CHEMBL4011618, “Discovery of Potent, Selective Stem Cell Factor Receptor/Platelet Derived Growth Factor Receptor Alpha (c-KIT/PDGFRα) Dual Inhibitor for the Treatment of Imatinib-Resistant Gastrointestinal Stromal Tumors (GISTs)” (J Med Chem, 2017).
Each block holds one molecule with its values, some of them ahead of it. The source made the active and inactive calls. The calls are words filed in the database; no cut-off is given here.

Columns and labels:
[1] = target: Vascular endothelial growth factor receptor 1 (Homo sapiens, UniProt P17948); experiment: Inhibition of VEGFR1 (unknown origin) using FAM-labeled peptide as substrate preincubated for 10 mins followed by substrate addition in presence of ATP by mobility shift assay
[2] = target: T1, Mast/stem cell growth factor receptor Kit (Homo sapiens, UniProt P10721)
T1 sequence (P10721 whole entry): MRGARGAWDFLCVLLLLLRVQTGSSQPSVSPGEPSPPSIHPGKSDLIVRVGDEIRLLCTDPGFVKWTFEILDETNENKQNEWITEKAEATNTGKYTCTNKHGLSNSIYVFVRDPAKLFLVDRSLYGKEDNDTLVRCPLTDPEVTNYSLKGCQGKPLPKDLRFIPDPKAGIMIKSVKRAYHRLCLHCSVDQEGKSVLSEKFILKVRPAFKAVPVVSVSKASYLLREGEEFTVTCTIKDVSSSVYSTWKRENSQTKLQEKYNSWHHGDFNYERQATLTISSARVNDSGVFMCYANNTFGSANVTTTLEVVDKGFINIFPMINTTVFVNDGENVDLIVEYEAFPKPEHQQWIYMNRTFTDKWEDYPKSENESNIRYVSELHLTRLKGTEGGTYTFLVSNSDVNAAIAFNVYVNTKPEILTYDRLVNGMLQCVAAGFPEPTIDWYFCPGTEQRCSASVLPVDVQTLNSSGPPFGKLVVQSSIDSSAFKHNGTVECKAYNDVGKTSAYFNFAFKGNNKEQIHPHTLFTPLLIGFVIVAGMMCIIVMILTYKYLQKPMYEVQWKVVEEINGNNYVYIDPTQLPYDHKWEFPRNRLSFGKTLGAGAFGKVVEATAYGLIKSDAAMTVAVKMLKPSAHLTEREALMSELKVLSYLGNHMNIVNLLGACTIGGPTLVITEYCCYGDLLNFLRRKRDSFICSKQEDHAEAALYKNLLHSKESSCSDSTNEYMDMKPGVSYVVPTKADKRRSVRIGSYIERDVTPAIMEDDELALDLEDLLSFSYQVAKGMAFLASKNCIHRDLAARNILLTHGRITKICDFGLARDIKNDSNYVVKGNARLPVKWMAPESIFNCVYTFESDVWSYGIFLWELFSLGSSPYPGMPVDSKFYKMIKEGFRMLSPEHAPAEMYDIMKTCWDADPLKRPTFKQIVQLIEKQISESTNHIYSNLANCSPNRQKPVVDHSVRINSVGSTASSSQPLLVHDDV
Description: Inhibition of TEL-fused cKIT (unknown origin) expressed in mouse BAF3 cells assessed as cell growth inhibition after 72 hrs by cell titer-glo assay

[3] = target: Platelet-derived growth factor receptor beta (Homo sapiens, UniProt P09619); experiment: Inhibition of PDGFRbeta (unknown origin) using FAM-labeled peptide as substrate preincubated for 10 mins followed by substrate addition in presence of ATP by mobility shift assay
[4] = tested on: Platelet-derived growth factor receptor alpha (Homo sapiens), P16234 [T674I]
Chain of Platelet-derived growth factor receptor alpha (Homo sapiens), P16234 [T674I] (P16234 whole entry T674I): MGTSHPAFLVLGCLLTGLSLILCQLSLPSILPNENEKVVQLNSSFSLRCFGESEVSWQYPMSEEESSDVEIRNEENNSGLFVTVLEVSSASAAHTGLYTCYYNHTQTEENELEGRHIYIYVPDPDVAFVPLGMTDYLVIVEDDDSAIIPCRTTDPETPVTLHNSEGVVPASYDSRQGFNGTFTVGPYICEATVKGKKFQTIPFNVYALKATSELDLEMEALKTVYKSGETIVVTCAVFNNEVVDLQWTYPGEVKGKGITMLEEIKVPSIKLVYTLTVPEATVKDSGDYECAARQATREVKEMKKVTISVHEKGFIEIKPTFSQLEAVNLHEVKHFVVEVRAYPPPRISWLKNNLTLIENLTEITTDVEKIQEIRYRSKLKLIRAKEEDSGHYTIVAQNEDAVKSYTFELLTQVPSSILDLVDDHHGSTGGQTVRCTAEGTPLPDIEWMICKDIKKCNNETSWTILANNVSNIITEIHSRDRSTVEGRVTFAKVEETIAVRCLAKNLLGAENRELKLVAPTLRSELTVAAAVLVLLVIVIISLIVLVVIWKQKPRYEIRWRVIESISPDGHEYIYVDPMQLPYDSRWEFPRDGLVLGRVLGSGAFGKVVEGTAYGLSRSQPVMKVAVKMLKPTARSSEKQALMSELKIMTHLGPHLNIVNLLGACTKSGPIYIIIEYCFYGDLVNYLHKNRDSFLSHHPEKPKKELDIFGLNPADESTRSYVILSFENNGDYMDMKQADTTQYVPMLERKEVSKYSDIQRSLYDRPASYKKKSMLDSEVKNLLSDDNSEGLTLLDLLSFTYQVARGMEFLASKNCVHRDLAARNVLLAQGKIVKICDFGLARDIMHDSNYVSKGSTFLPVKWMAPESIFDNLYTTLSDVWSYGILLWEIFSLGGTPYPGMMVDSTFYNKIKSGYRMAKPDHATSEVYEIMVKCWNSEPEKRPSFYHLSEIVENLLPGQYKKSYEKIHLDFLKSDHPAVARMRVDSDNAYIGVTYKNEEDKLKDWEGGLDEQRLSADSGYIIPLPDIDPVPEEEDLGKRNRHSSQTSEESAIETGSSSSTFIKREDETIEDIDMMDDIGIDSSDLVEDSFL
Description: Inhibition of TEL-fused PDGFRalpha T674I mutant (unknown origin) expressed in mouse BAF3 cells assessed as cell growth inhibition after 72 hrs by cell titer-glo assay

[5] = target: T2, Platelet-derived growth factor receptor alpha (Homo sapiens, UniProt P16234)
T2 sequence (P16234 whole entry): as the sequence (P16234 whole entry T674I) above, with I674T counted along it
Description: Inhibition of TEL-fused PDGFRalpha (unknown origin) expressed in mouse BAF3 cells assessed as cell growth inhibition after 72 hrs by cell titer-glo assay

[6] = target: T1, Mast/stem cell growth factor receptor Kit; remark: listed apart in the source
Description: Inhibition of cKIT (unknown origin) using FAM-labeled peptide as substrate preincubated for 10 mins followed by substrate addition in presence of ATP by mobility shift assay

[7] = target: Vascular endothelial growth factor receptor 3 (Homo sapiens, UniProt P35916); experiment: Inhibition of VEGFR3 (unknown origin) using FAM-labeled peptide as substrate preincubated for 10 mins followed by substrate addition in presence of ATP by mobility shift assay
[8] = tested on: Mast/stem cell growth factor receptor Kit (Homo sapiens), P10721 [T670I]
Description: Inhibition of TEL-fused cKIT T670I mutant (unknown origin) expressed in mouse BAF3 cells assessed as cell growth inhibition after 72 hrs by cell titer-glo assay

[9] = target: Fibroblast growth factor receptor 1 (Homo sapiens, UniProt P11362); experiment: Inhibition of FGFR1 (unknown origin) using FAM-labeled peptide as substrate preincubated for 10 mins followed by substrate addition in presence of ATP by mobility shift assay
[10] = target: T2, Platelet-derived growth factor receptor alpha; experiment: Inhibition of PDGFRalpha (unknown origin) using FAM-labeled peptide as substrate preincubated for 10 mins followed by substrate addition in presence of ATP by mobility shift assay
[11] = target: Vascular endothelial growth factor receptor 2 (Homo sapiens, UniProt P35968)
Description: Inhibition of VEGFR2 (unknown origin) using FAM-labeled peptide as substrate preincubated for 10 mins followed by substrate addition in presence of ATP by mobility shift assay

[12] = target: Receptor-type tyrosine-protein kinase FLT3 (Homo sapiens, UniProt P36888); experiment: Inhibition of FLT3 (unknown origin) using FAM-labeled peptide as substrate preincubated for 10 mins followed by substrate addition in presence of ATP by mobility shift assay
[13] = Antiproliferative activity against human GIST48B cells assessed as cell growth inhibition after 72 hrs by cell titer-glo assay; type: functional
BaF3 = settings: Mus musculus
Description: Antitumor activity against mouse BAF3 cells harboring TEL-cKIT-T670I mutant allografted in nu/nu mouse assessed as tumor growth inhibition at 100 mg/kg, ip administered daily for 11 days relative to control

KU812 cell line = experiment: Antiproliferative activity against human KU812 cells assessed as cell growth inhibition after 72 hrs by cell titer-glo assay; type: functional; settings: KU812, 72 h
[14] = Antiproliferative activity against CHO cells assessed as cell growth inhibition after 72 hrs by cell titer-glo assay; type: cell-based, Cricetulus griseus; settings: chinese hamster
[15] = tested on: Mast/stem cell growth factor receptor Kit (Homo sapiens), P10721 [V654A]
Description: Inhibition of TEL-fused cKIT V654A mutant (unknown origin) expressed in mouse BAF3 cells assessed as cell growth inhibition after 72 hrs by cell titer-glo assay

GIST882 = experiment: Antiproliferative activity against human GIST882 cells assessed as cell growth inhibition after 72 hrs by cell titer-glo assay; type: functional; settings: GIST882, 72 h
GISTT1 [16] = experiment: Antitumor activity against human GISTT1 cells xenografted in nu/nu mouse assessed as tumor growth inhibition at 100 mg/kg, ip administered daily for 28 days relative to control; type: functional; settings: 672 h, read-out: TGI
[17] = Antiproliferative activity against CHL cells assessed as cell growth inhibition after 72 hrs by cell titer-glo assay; type: cell-based, Cricetulus griseus; settings: chinese hamster
[18] = tested on: Mast/stem cell growth factor receptor Kit (Homo sapiens), P10721 [V559D,V654A]
Chain of Mast/stem cell growth factor receptor Kit (Homo sapiens), P10721 [V559D,V654A] (P10721 whole entry V559D/V654A): as the sequence (P10721 whole entry) above, with V559D, V654A counted along it

[19] = tested on: Mast/stem cell growth factor receptor Kit (Homo sapiens), P10721 [N822K]
Description: Inhibition of TEL-fused cKIT N822K mutant (unknown origin) expressed in mouse BAF3 cells assessed as cell growth inhibition after 72 hrs by cell titer-glo assay

MEG-01 = experiment: Antiproliferative activity against human MEG01 cells assessed as cell growth inhibition after 72 hrs by cell titer-glo assay; type: functional; settings: MEG-01, 72 h
[20] = tested on: Mast/stem cell growth factor receptor Kit (Homo sapiens), P10721 [C674S]
Description: Inhibition of TEL-fused cKIT C674S mutant (unknown origin) expressed in mouse BAF3 cells assessed as cell growth inhibition after 72 hrs by cell titer-glo assay

GISTT1 [21] = experiment: Antiproliferative activity against human GISTT1 cells assessed as cell growth inhibition after 72 hrs by cell titer-glo assay; type: functional; settings: GISTT1, 72 h
[22] = tested on: Mast/stem cell growth factor receptor Kit (Homo sapiens), P10721 [L576P]
Description: Inhibition of TEL-fused cKIT L576P mutant (unknown origin) expressed in mouse BAF3 cells assessed as cell growth inhibition after 72 hrs by cell titer-glo assay

[23] = Antiproliferative activity against mouse BAF3 cells assessed as cell growth inhibition after 72 hrs by cell titer-glo assay; type: cell-based
[24] = tested on: Mast/stem cell growth factor receptor Kit (Homo sapiens), P10721 [A829P]
Chain of Mast/stem cell growth factor receptor Kit (Homo sapiens), P10721 [A829P] (P10721 whole entry A829P): as the sequence (P10721 whole entry) above, with A829P counted along it
Description: Inhibition of TEL-fused cKIT A829P mutant (unknown origin) expressed in mouse BAF3 cells assessed as cell growth inhibition after 72 hrs by cell titer-glo assay

- IC50 [1]: 3490 nM
- GI50 [2]: 248 nM
- IC50 [3]: 197 nM
- GI50 [4]: 1170 nM
- GI50 [5]: 10.4 nM
- IC50 [6]: 2.1 nM
- IC50 [7]: 376 nM
- GI50 [8]: 318 nM
- IC50 [9]: > 50000 nM
- IC50 [10]: 40 nM
- IC50 [11]: 1230 nM
- IC50 [12]: 1880 nM
SMILES: Cc1cccc(NC(=O)Nc2ccc(-c3ccnc4[nH]nc(C)c34)cc2)c1

- GI50 [15]: 803 nM
- GI50 [4]: > 10000 nM
- GI50 [18]: 803 nM
- GI50 [19]: 1470 nM
- GI50 [20]: 24.9 nM
- GI50 [22]: 45.1 nM
- GI50 [24]: 148 nM
SMILES: Cc1ccc(NC(=O)c2ccc(CN3CCN(C)CC3)cc2)cc1Nc1nccc(-c2cccnc2)n1 [IMATINIB]
- GI50 [13]: 6990 nM
- TGI (BaF3): inactive
- GI50 (KU812 cell line): 110 nM
- GI50 at 72 h [14]: > 10000 nM
- GI50 (GIST882): 20 nM
- inhibition in vivo at 100 mg/kg (GISTT1 [16]): 87.3%
- GI50 at 72 h [17]: > 10000 nM
- GI50 (MEG-01): 45 nM
- GI50 (GISTT1 [21]): 3 nM
- GI50 at 72 h [23]: 4690 nM
